Reference: the NIST ThermoML archive (doi:10.1016/j.jct.2018.01.024)

Assay: mn = molality of the nth substance listed, in mol/kg
Settings: Liquid

NC(N)=O [urea] + O
Settings | mass density [kg/m3]
274.15 K, 101 kPa, Vibrating tube method, m1 = 0.093 | 1001.57
274.15 K, 101 kPa, Vibrating tube method, m1 = 0.1063 | 1001.81
274.15 K, 101 kPa, Vibrating tube method, m1 = 0.141 | 1002.43
274.15 K, 101 kPa, Vibrating tube method, m1 = 0.152 | 1002.62
274.15 K, 101 kPa, Vibrating tube method, m1 = 0.1809 | 1003.14
274.15 K, 101 kPa, Vibrating tube method, m1 = 0.2423 | 1004.22
274.15 K, 101 kPa, Vibrating tube method, m1 = 0.4362 | 1007.6
274.15 K, 101 kPa, Vibrating tube method, m1 = 0.5644 | 1009.79
274.15 K, 101 kPa, Vibrating tube method, m1 = 1.008 | 1017.11
274.15 K, 101 kPa, Vibrating tube method, m1 = 1.609 | 1026.44
274.15 K, 101 kPa, Vibrating tube method, m1 = 2.505 | 1039.26
275.15 K, 101 kPa, Vibrating tube method, m1 = 0.093 | 1001.6
275.15 K, 101 kPa, Vibrating tube method, m1 = 0.1063 | 1001.84
275.15 K, 101 kPa, Vibrating tube method, m1 = 0.141 | 1002.45
275.15 K, 101 kPa, Vibrating tube method, m1 = 0.152 | 1002.64
275.15 K, 101 kPa, Vibrating tube method, m1 = 0.1809 | 1003.16
275.15 K, 101 kPa, Vibrating tube method, m1 = 0.2423 | 1004.23
275.15 K, 101 kPa, Vibrating tube method, m1 = 0.4362 | 1007.59
275.15 K, 101 kPa, Vibrating tube method, m1 = 0.5644 | 1009.77
275.15 K, 101 kPa, Vibrating tube method, m1 = 1.008 | 1017.04
275.15 K, 101 kPa, Vibrating tube method, m1 = 1.609 | 1026.31
275.15 K, 101 kPa, Vibrating tube method, m1 = 2.505 | 1039.07
276.15 K, 101 kPa, Vibrating tube method, m1 = 0.093 | 1001.61
276.15 K, 101 kPa, Vibrating tube method, m1 = 0.1063 | 1001.85
276.15 K, 101 kPa, Vibrating tube method, m1 = 0.141 | 1002.46
276.15 K, 101 kPa, Vibrating tube method, m1 = 0.152 | 1002.65
276.15 K, 101 kPa, Vibrating tube method, m1 = 0.1809 | 1003.16
276.15 K, 101 kPa, Vibrating tube method, m1 = 0.2423 | 1004.22
276.15 K, 101 kPa, Vibrating tube method, m1 = 0.4362 | 1007.56
276.15 K, 101 kPa, Vibrating tube method, m1 = 0.5644 | 1009.73
276.15 K, 101 kPa, Vibrating tube method, m1 = 1.008 | 1016.96
276.15 K, 101 kPa, Vibrating tube method, m1 = 1.609 | 1026.17
276.15 K, 101 kPa, Vibrating tube method, m1 = 2.505 | 1038.86
277.15 K, 101 kPa, Vibrating tube method, m1 = 0.093 | 1001.61
277.15 K, 101 kPa, Vibrating tube method, m1 = 0.1063 | 1001.85
277.15 K, 101 kPa, Vibrating tube method, m1 = 0.141 | 1002.45
277.15 K, 101 kPa, Vibrating tube method, m1 = 0.152 | 1002.64
277.15 K, 101 kPa, Vibrating tube method, m1 = 0.1809 | 1003.15
277.15 K, 101 kPa, Vibrating tube method, m1 = 0.2423 | 1004.2
277.15 K, 101 kPa, Vibrating tube method, m1 = 0.4362 | 1007.52
277.15 K, 101 kPa, Vibrating tube method, m1 = 0.5644 | 1009.67
277.15 K, 101 kPa, Vibrating tube method, m1 = 1.008 | 1016.85
277.15 K, 101 kPa, Vibrating tube method, m1 = 1.609 | 1026.02
277.15 K, 101 kPa, Vibrating tube method, m1 = 2.505 | 1038.66
278.15 K, 101 kPa, Vibrating tube method, m1 = 0.093 | 1001.59
278.15 K, 101 kPa, Vibrating tube method, m1 = 0.1063 | 1001.82
278.15 K, 101 kPa, Vibrating tube method, m1 = 0.141 | 1002.42
278.15 K, 101 kPa, Vibrating tube method, m1 = 0.152 | 1002.61
278.15 K, 101 kPa, Vibrating tube method, m1 = 0.1809 | 1003.12
278.15 K, 101 kPa, Vibrating tube method, m1 = 0.2423 | 1004.17
278.15 K, 101 kPa, Vibrating tube method, m1 = 0.4362 | 1007.46
278.15 K, 101 kPa, Vibrating tube method, m1 = 0.5644 | 1009.6
278.15 K, 101 kPa, Vibrating tube method, m1 = 1.008 | 1016.74
278.15 K, 101 kPa, Vibrating tube method, m1 = 1.609 | 1025.85
278.15 K, 101 kPa, Vibrating tube method, m1 = 2.505 | 1038.42
278.15 K, 101 kPa, Vibrating tube method, m1 = 3.376 | 1049.57
278.15 K, 101 kPa, Vibrating tube method, m1 = 4.33 | 1060.83
278.15 K, 101 kPa, Vibrating tube method, m1 = 5.39 | 1072.16
278.15 K, 101 kPa, Vibrating tube method, m1 = 8 | 1096.24
278.15 K, 101 kPa, Vibrating tube method, m1 = 9.9 | 1110.86
278.15 K, 101 kPa, Vibrating tube method, m1 = 12.8 | 1129.78
278.15 K, 10000 kPa, Constant-volume piezometry, m1 = 0.1809 | 1007.91
278.15 K, 10000 kPa, Constant-volume piezometry, m1 = 0.4362 | 1012.23
278.15 K, 10000 kPa, Constant-volume piezometry, m1 = 0.5644 | 1014.35
278.15 K, 10000 kPa, Constant-volume piezometry, m1 = 1.609 | 1030.49
278.15 K, 10000 kPa, Constant-volume piezometry, m1 = 2.505 | 1042.94
278.15 K, 10000 kPa, Constant-volume piezometry, m1 = 3.376 | 1053.98
278.15 K, 10000 kPa, Constant-volume piezometry, m1 = 5.39 | 1076.38
278.15 K, 10000 kPa, Constant-volume piezometry, m1 = 8 | 1100.31
278.15 K, 10000 kPa, Constant-volume piezometry, m1 = 10.99 | 1122.33
278.15 K, 10000 kPa, Constant-volume piezometry, m1 = 12.8 | 1133.68
278.15 K, 25000 kPa, Constant-volume piezometry, m1 = 0.1809 | 1014.96
278.15 K, 25000 kPa, Constant-volume piezometry, m1 = 0.4362 | 1019.23
278.15 K, 25000 kPa, Constant-volume piezometry, m1 = 0.5644 | 1021.32
278.15 K, 25000 kPa, Constant-volume piezometry, m1 = 1.609 | 1037.26
278.15 K, 25000 kPa, Constant-volume piezometry, m1 = 2.505 | 1049.56
278.15 K, 25000 kPa, Constant-volume piezometry, m1 = 3.376 | 1060.45
278.15 K, 25000 kPa, Constant-volume piezometry, m1 = 5.39 | 1082.6
278.15 K, 25000 kPa, Constant-volume piezometry, m1 = 8 | 1106.3
278.15 K, 25000 kPa, Constant-volume piezometry, m1 = 10.99 | 1128.15
278.15 K, 25000 kPa, Constant-volume piezometry, m1 = 12.8 | 1139.4
278.15 K, 50000 kPa, Constant-volume piezometry, m1 = 0.1809 | 1026.22
278.15 K, 50000 kPa, Constant-volume piezometry, m1 = 0.4362 | 1030.39
278.15 K, 50000 kPa, Constant-volume piezometry, m1 = 0.5644 | 1032.44
278.15 K, 50000 kPa, Constant-volume piezometry, m1 = 1.609 | 1048.03
278.15 K, 50000 kPa, Constant-volume piezometry, m1 = 2.505 | 1060.07
278.15 K, 50000 kPa, Constant-volume piezometry, m1 = 3.376 | 1070.75
278.15 K, 50000 kPa, Constant-volume piezometry, m1 = 5.39 | 1092.51
278.15 K, 50000 kPa, Constant-volume piezometry, m1 = 8 | 1115.83
278.15 K, 50000 kPa, Constant-volume piezometry, m1 = 10.99 | 1137.36
278.15 K, 50000 kPa, Constant-volume piezometry, m1 = 12.8 | 1148.51
278.15 K, 75000 kPa, Constant-volume piezometry, m1 = 0.1809 | 1036.88
278.15 K, 75000 kPa, Constant-volume piezometry, m1 = 0.4362 | 1040.96
278.15 K, 75000 kPa, Constant-volume piezometry, m1 = 0.5644 | 1042.96
278.15 K, 75000 kPa, Constant-volume piezometry, m1 = 1.609 | 1058.21
278.15 K, 75000 kPa, Constant-volume piezometry, m1 = 2.505 | 1069.97
278.15 K, 75000 kPa, Constant-volume piezometry, m1 = 3.376 | 1080.48
278.15 K, 75000 kPa, Constant-volume piezometry, m1 = 5.39 | 1101.91
278.15 K, 75000 kPa, Constant-volume piezometry, m1 = 8 | 1124.88
278.15 K, 75000 kPa, Constant-volume piezometry, m1 = 10.99 | 1146.09
278.15 K, 75000 kPa, Constant-volume piezometry, m1 = 12.8 | 1157.08
278.15 K, 100000 kPa, Constant-volume piezometry, m1 = 0.1809 | 1046.98
278.15 K, 100000 kPa, Constant-volume piezometry, m1 = 0.4362 | 1050.97
278.15 K, 100000 kPa, Constant-volume piezometry, m1 = 0.5644 | 1052.94
278.15 K, 100000 kPa, Constant-volume piezometry, m1 = 1.609 | 1067.87
278.15 K, 100000 kPa, Constant-volume piezometry, m1 = 2.505 | 1079.44
278.15 K, 100000 kPa, Constant-volume piezometry, m1 = 3.376 | 1089.73
278.15 K, 100000 kPa, Constant-volume piezometry, m1 = 5.39 | 1110.78
278.15 K, 100000 kPa, Constant-volume piezometry, m1 = 8 | 1133.5
278.15 K, 100000 kPa, Constant-volume piezometry, m1 = 10.99 | 1154.43
278.15 K, 100000 kPa, Constant-volume piezometry, m1 = 12.8 | 1165.23
279.15 K, 101 kPa, Vibrating tube method, m1 = 0.093 | 1001.56
